# Results taken from the supplement of paper PMC10307832.
# Legend:
# Assay in all cases: relative viability (nuclei count vs DMSO), 5 days (fraction); higher = more cells survive
# [1] = system: ChaGo-K-1
# Method in brief: (§1)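 Lung cancer cell lines, seeded in 1536-well plates, were treated the following day by pin tool with a single drug or with five library-drug doses (not always all listed) in √10 steps on top of a fixed anchor-drug dose. Cells were fixed and nuclei stained in one step after 5 days, and nuclei were counted. Relative viability is the nuclei count for treated wells divided by that for vehicle wells, reported as medians of duplicate plates.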
# [2] = system: HCC-827
# Method in brief: as §1
# [3] = system: NCI-H1755
# Method in brief: as §1
# [4] = system: NCI-H2347
# Method in brief: as §1
# [5] = system: NCI-H322M
# Method in brief: as §1
# [6] = system: NCI-H520
# Method in brief: as §1
# [7] = system: LXF-289
# Method in brief: as §1
# [8] = system: RERF-LC-KJ
# Method in brief: as §1
# [9] = system: ABC-1
# Method in brief: as §1
# [10] = system: NCI-H1792
# Method in brief: as §1
# [11] = system: NCI-H3122
# Method in brief: as §1
# [12] = system: LCLC-103H
# Method in brief: as §1
# [13] = system: LU99A
# Method in brief: as §1
# [14] = system: NCI-H2126
# Method in brief: as §1
# [15] = system: HCC-44
# Method in brief: as §1
# [16] = system: CAL-12T
# Method in brief: as §1
# [17] = system: SK-LU-1
# Method in brief: as §1
# [18] = system: NCI-H1666
# Method in brief: as §1
smiles,measurement,setting,value
Cc1csc(=NC2CCCCC2)n1/N=C/c1ccc(O)c(O)c1O [MIM1] + CC(C)C[C@H](NC(=O)[C@H](Cc1ccccc1)NC(=O)c1cnccn1)B(O)O [Bortezomib] (partner 0.002 µM),relative viability,[1]; first compound 0.2 µM,1.03
same,relative viability,[1]; first compound 0.6325 µM,0.972
same,relative viability,[1]; first compound 2 µM,1.06
same,relative viability,[1]; first compound 6.325 µM,0.729
same,relative viability,[1]; first compound 20 µM,0.29
same,relative viability,[2]; first compound 0.2 µM,1.09
same,relative viability,[2]; first compound 0.6325 µM,0.9
same,relative viability,[2]; first compound 2 µM,1.07
same,relative viability,[2]; first compound 6.325 µM,0.402
same,relative viability,[2]; first compound 20 µM,0.465
same,relative viability,[3]; first compound 0.2 µM,0.954
same,relative viability,[3]; first compound 0.6325 µM,0.949
same,relative viability,[3]; first compound 2 µM,0.893
same,relative viability,[3]; first compound 6.325 µM,0.776
same,relative viability,[3]; first compound 20 µM,0.377
same,relative viability,[4]; first compound 0.2 µM,0.944
same,relative viability,[4]; first compound 0.6325 µM,1.03
same,relative viability,[4]; first compound 2 µM,0.939
same,relative viability,[4]; first compound 6.325 µM,0.798
same,relative viability,[4]; first compound 20 µM,0.578
same,relative viability,[5]; first compound 0.2 µM,1.21
same,relative viability,[5]; first compound 0.6325 µM,1.2
same,relative viability,[5]; first compound 2 µM,1.35
same,relative viability,[5]; first compound 6.325 µM,1.17
same,relative viability,[5]; first compound 20 µM,1.08
same,relative viability,[6]; first compound 0.2 µM,0.721
same,relative viability,[6]; first compound 0.6325 µM,0.353
same,relative viability,[6]; first compound 2 µM,0.684
same,relative viability,[6]; first compound 6.325 µM,0.401
same,relative viability,[6]; first compound 20 µM,0.184
same,relative viability,[7]; first compound 0.2 µM,0.986
same,relative viability,[7]; first compound 0.6325 µM,0.791
same,relative viability,[7]; first compound 2 µM,1.03
same,relative viability,[7]; first compound 6.325 µM,0.826
same,relative viability,[7]; first compound 20 µM,0.634
same,relative viability,[8]; first compound 0.2 µM,1.08
same,relative viability,[8]; first compound 0.6325 µM,1.29
same,relative viability,[8]; first compound 2 µM,0.852
same,relative viability,[8]; first compound 6.325 µM,0.601
same,relative viability,[8]; first compound 20 µM,0.264
same,relative viability,[9]; first compound 0.2 µM,0.33
same,relative viability,[9]; first compound 0.6325 µM,0.299
same,relative viability,[9]; first compound 2 µM,0.298
same,relative viability,[9]; first compound 6.325 µM,0.309
same,relative viability,[9]; first compound 20 µM,0.231
same,relative viability,[10]; first compound 0.2 µM,0.852
same,relative viability,[10]; first compound 0.6325 µM,0.921
same,relative viability,[10]; first compound 2 µM,0.922
same,relative viability,[10]; first compound 6.325 µM,0.452
same,relative viability,[10]; first compound 20 µM,0.851
same,relative viability,[11]; first compound 0.2 µM,1
same,relative viability,[11]; first compound 0.6325 µM,1.06
same,relative viability,[11]; first compound 2 µM,0.999
same,relative viability,[11]; first compound 6.325 µM,0.986
same,relative viability,[11]; first compound 20 µM,0.235
same,relative viability,[12]; first compound 0.2 µM,0.974
same,relative viability,[12]; first compound 0.6325 µM,0.959
same,relative viability,[12]; first compound 2 µM,1.05
same,relative viability,[12]; first compound 6.325 µM,0.955
same,relative viability,[12]; first compound 20 µM,0.938
same,relative viability,[13]; first compound 0.2 µM,1.08
same,relative viability,[13]; first compound 0.6325 µM,1.08
same,relative viability,[13]; first compound 2 µM,1.1
same,relative viability,[13]; first compound 6.325 µM,0.987
same,relative viability,[13]; first compound 20 µM,0.341
same,relative viability,[14]; first compound 0.2 µM,1.13
same,relative viability,[14]; first compound 0.6325 µM,1.1
same,relative viability,[14]; first compound 2 µM,1.13
same,relative viability,[14]; first compound 6.325 µM,1.03
same,relative viability,[14]; first compound 20 µM,1
same,relative viability,[15]; first compound 0.2 µM,0.879
same,relative viability,[15]; first compound 0.6325 µM,0.816
same,relative viability,[15]; first compound 2 µM,0.84
same,relative viability,[15]; first compound 6.325 µM,0.446
same,relative viability,[15]; first compound 20 µM,0.141
same,relative viability,[16]; first compound 0.2 µM,1.01
same,relative viability,[16]; first compound 2 µM,1.04
same,relative viability,[16]; first compound 6.325 µM,0.867
same,relative viability,[16]; first compound 20 µM,0.429
same,relative viability,[17]; first compound 0.2 µM,1.05
same,relative viability,[17]; first compound 0.6325 µM,1.09
same,relative viability,[17]; first compound 2 µM,1.09
same,relative viability,[17]; first compound 6.325 µM,0.962
same,relative viability,[17]; first compound 20 µM,0.947
same,relative viability,[18]; first compound 0.2 µM,0.863
same,relative viability,[18]; first compound 0.6325 µM,0.916
same,relative viability,[18]; first compound 2 µM,0.722
same,relative viability,[18]; first compound 6.325 µM,0.568
same,relative viability,[18]; first compound 20 µM,0.249
CN1CCN(CCOc2cc(OC3CCOCC3)c3c(Nc4c(Cl)ccc5c4OCO5)ncnc3c2)CC1 [Saracatinib] + CC(C)C[C@H](NC(=O)[C@H](Cc1ccccc1)NC(=O)c1cnccn1)B(O)O [Bortezomib] (partner 0.002 µM),relative viability,[1]; first compound 0.02 µM,1.1
same,relative viability,[1]; first compound 0.2 µM,0.866
same,relative viability,[1]; first compound 0.6325 µM,1.05
same,relative viability,[1]; first compound 2 µM,0.79
same,relative viability,[2]; first compound 0.02 µM,0.965
same,relative viability,[2]; first compound 0.2 µM,0.963
same,relative viability,[2]; first compound 0.6325 µM,0.479
same,relative viability,[2]; first compound 2 µM,0.306
same,relative viability,[3]; first compound 0.02 µM,1.02
same,relative viability,[3]; first compound 0.2 µM,0.792
same,relative viability,[3]; first compound 0.6325 µM,1.08
same,relative viability,[3]; first compound 2 µM,0.83
same,relative viability,[4]; first compound 0.02 µM,1.01
same,relative viability,[4]; first compound 0.2 µM,0.921
same,relative viability,[4]; first compound 0.6325 µM,1.2
same,relative viability,[4]; first compound 2 µM,0.893
same,relative viability,[5]; first compound 0.02 µM,1.23
same,relative viability,[5]; first compound 0.2 µM,1.14
same,relative viability,[5]; first compound 0.6325 µM,1.23
same,relative viability,[5]; first compound 2 µM,0.988
same,relative viability,[6]; first compound 0.02 µM,0.663
same,relative viability,[6]; first compound 0.2 µM,0.431
same,relative viability,[6]; first compound 0.6325 µM,0.289
same,relative viability,[6]; first compound 2 µM,0.174
same,relative viability,[7]; first compound 0.02 µM,0.937
same,relative viability,[7]; first compound 0.2 µM,0.959
same,relative viability,[7]; first compound 0.6325 µM,0.966
same,relative viability,[7]; first compound 2 µM,0.987
same,relative viability,[8]; first compound 0.02 µM,1.09
same,relative viability,[8]; first compound 0.2 µM,1.23
same,relative viability,[8]; first compound 0.6325 µM,0.993
same,relative viability,[8]; first compound 2 µM,0.942
same,relative viability,[9]; first compound 0.02 µM,0.275
same,relative viability,[9]; first compound 0.2 µM,0.282
same,relative viability,[9]; first compound 0.6325 µM,0.312
same,relative viability,[9]; first compound 2 µM,0.317
same,relative viability,[10]; first compound 0.02 µM,0.956
same,relative viability,[10]; first compound 0.2 µM,0.344
same,relative viability,[10]; first compound 0.6325 µM,1.06
same,relative viability,[10]; first compound 2 µM,0.914
same,relative viability,[11]; first compound 0.02 µM,1.05
same,relative viability,[11]; first compound 0.6325 µM,0.964
same,relative viability,[11]; first compound 2 µM,0.815
same,relative viability,[12]; first compound 0.02 µM,1.21
same,relative viability,[12]; first compound 0.2 µM,0.963
same,relative viability,[12]; first compound 0.6325 µM,1.09
same,relative viability,[12]; first compound 2 µM,0.941
same,relative viability,[13]; first compound 0.02 µM,1.1
same,relative viability,[13]; first compound 0.2 µM,1
same,relative viability,[13]; first compound 0.6325 µM,1.13
same,relative viability,[13]; first compound 2 µM,0.942
same,relative viability,[14]; first compound 0.02 µM,1.09
same,relative viability,[14]; first compound 0.2 µM,1.02
same,relative viability,[14]; first compound 0.6325 µM,1.11
same,relative viability,[14]; first compound 2 µM,0.996
same,relative viability,[15]; first compound 0.02 µM,0.917
same,relative viability,[15]; first compound 0.2 µM,0.78
same,relative viability,[15]; first compound 0.6325 µM,0.93
same,relative viability,[15]; first compound 2 µM,1.02
same,relative viability,[16]; first compound 0.02 µM,0.944
same,relative viability,[16]; first compound 0.2 µM,0.949
same,relative viability,[16]; first compound 0.6325 µM,1.24
same,relative viability,[16]; first compound 2 µM,0.639
same,relative viability,[17]; first compound 0.02 µM,1.31
same,relative viability,[17]; first compound 0.2 µM,1.19
same,relative viability,[17]; first compound 0.6325 µM,0.829
same,relative viability,[17]; first compound 2 µM,0.735
same,relative viability,[18]; first compound 0.02 µM,0.898
same,relative viability,[18]; first compound 0.2 µM,0.978
same,relative viability,[18]; first compound 0.6325 µM,1.07
same,relative viability,[18]; first compound 2 µM,1.06
